Results taken from US20250388571A1, “AMP-ACTIVATED PROTEIN KINASE MODULATOR COMPOUNDS AND USES THEREOF” (Biolexis Therapeutics, Inc., priority 2024, published 2025).
“Also recorded” adds a separate entry of the source.

Assays:
[1] = target: AMPK (A2/B1/G2) (Homo sapiens, UniProt P54646+Q9UGJ0+Q9Y478); experiment: AMPK kinase binding activity in activation mode (AC50); assay type: biochemical
From the text: In Vitro AMPK Kinase Inhibition Experiments

[2] = target: AMPK (A2/B1/G3) (Homo sapiens, UniProt P54646+Q9UGI9+Q9Y478); experiment: as above; assay type: biochemical
[3] = target: AMPK (A2/B1/G1) (Homo sapiens, UniProt P54619+P54646+Q9Y478); experiment: as above; assay type: biochemical
[4] = test system: human cardiomyocyte cells (HCM); experiment: Glucose uptake assay, human cardiomyocyte cells; assay type: cell-based; conditions: for glucose uptake: donor not stated; for AMPK activation activity (glucose uptake assay): 10 doses 100 μM to 0.005 μM
Description: FIGS. 17-19 show results for glucose update assays in human cardiomyocyte cells (“HCM”-healthy donor) (Promocell, cat. no. C-12810) when treated with compound I-11 (FIG. 17), compound I-7 (FIG. 18), and PF-06409577 (FIG. 19). After recovered HCM cells for 4 days, cells were starved for 3 hours in high glucose DMEM without FBS, treated with the components noted above in DMEM without FBS/glucose for 1 hour, and glucose uptake was detected using a glucose uptake kit (Promega). […] The bars show (from left to right) concentrations of 100 μM, 33 μM, 11 μM, 3.7 μM, 1.23 μM, 0.41 μM, 0.14 μM, 0.045 μM, 0.015 μM, 0.005 μM, 0 μM, and insulin.
FIGS. 20-22 show results for glucose update assays in human cardiomyocyte cells (“HCM”-diabetic donor) (Promocell, cat. no. C-12810) when treated with compound I-11 (FIG. 20), compound I-7 (FIG. 21), and PF-06409577 (FIG. 22). After recovered HCM cells for 4 days, cells were starved for 3 hours in high glucose DMEM without FBS, treated with the components noted above in DMEM without FBS/glucose for 1 hour, and glucose uptake was detected using a glucose uptake kit (Promega). […] The bars show (from left to right) concentrations of 100 μM, 33 μM, 11 μM, 3.7 μM, 1.23 μM, 0.41 μM, 0.14 μM, 0.045 μM, 0.015 μM, 0.005 μM, 0 μM, and insulin.
(§1) Human skeletal myoblasts were obtained (Thermofisher; BYU) and cultured in DMEM/F12 medium with 10% FBS. For differentiation, 2% horse serum low glucose DMEM medium was employed for 72 hours. Human cardiomyocytes cells (HCM cells; Promocell) were cultured in myocyte growth medium (Promocell). Human preadipocyte HWP-c cells (Promocell) were obtained from upper arm of diabetic II donor. Human preadipocyte HWP-c cells (Promocell) were obtained from abdomen of diabetic II donor. For differentiating human preadipocytes, cells were cultured in preadipocyte growth medium to total confluency stage. The growth medium was replaced with preadipocyte differentiation medium for 72 hours, then changed to PromoCell adipocyte nutrition medium to complete the differentiation process. THLE-2 cells were cultured in BEGM from Lonza/Clonetics Corporation, Walkersville, MD 21793 (BEGM Bullet Kit; CC3170). HepG2, L6 and C2Cl2 cells were cultured in EMEM medium.
(§2) After differentiation myoblasts, preadipocyte cells were starved by removing the medium and adding 100 μL DMEM without serum. The medium was then replaced with 100 μL DMEM±1 μM insulin at indicated concentration of representative compounds without serum or glucose. The cells were then incubated for 1 hour at 37° C. in 5% CO2. The cells were then removed from the medium and 50 μL of 0.1 mM 2DG in PBS was added. Cells were incubated for 30 minutes at 25° C. 25 μL of Stop Buffer was added and samples were mixed. 25 μL of Neutralization Buffer was then added and mixed. 100 μL of 2DG6P Detection Reagent was then added and mixed. Samples were then incubated for 1 hour at 25° C. Luminescence was then recorded with 0.3-1 second integration on a luminometer.

[5] = test system: human hepatocytes-THLE-2 cells; experiment: Glucose uptake assay, THLE-2 cells; assay type: cell-based
Description: FIGS. 13-16 show results for glucose update assays in THLE-2 cells (ATCC, cat. No. CRL-2706) when treated with compound I-11 (FIG. 13), compound I-7 (FIG. 14), MK-8722 (FIG. 15), and PF-06409577 (FIG. 16). The THLE-2 cells were starved for 3 hours in high glucose DMEM without FBS, treated with the components noted above in DMEM without FBS/glucose for 1 hour, and glucose uptake was detected using a glucose uptake kit (Promega). The bars show (from left to right) concentrations of 100 μM, 33 μM, 11 μM, 3.7 μM, 1.23 μM, 0.41 μM, 0.14 μM, 0.045 μM, 0.015 μM, 0.005 μM, 0 μM, and insulin.
as §1, §2

[6] = test system: AMPK signal pathway in HSKM cells; experiment: Western blot assay, HSKM cells; assay type: cell-based, human; conditions: some high dosage groups; cell type not given
[7] = test system: Human white preadipocyte (HWP) cells; experiment: Glucose uptake assay, human white preadipocyte cells; assay type: cell-based; conditions: for glucose uptake: human adipocyte cells / HWP-c cells, donor site not stated
Description: (§3) FIGS. 5-8 show results for glucose update assays in Human white preadipocyte (HWP) cells (Promocell, cat. No. C-12735) when treated with compound I-11 (FIG. 5), compound I-7 (FIG. 6), MK-8722 (FIG. 7), and PF-06409577 (FIG. 8). HWP cells (subcutaneous upper arm of obese patient) were starved for 3 hours in DMEM without FBS, treated with the components noted above in […] DMEM without FBS/glucose for 1 hour, and glucose uptake was detected using a glucose uptake kit (Promega). […] The bars show (from left to right) concentrations of 100 μM, 33 μM, 11 μM, 3.7 μM, 1.23 μM, 0.41 μM, 0.14 μM, 0.045 μM, 0.015 μM, 0.005 μM, 0 μM, and insulin.
as §3, with “9-12” for “5-8”, “9),” for “5),”, “10),” for “6),”, “11),” for “7),”, “12).” for “8).”, “(abdomen cells)” for “(subcutaneous upper arm of obese patient)”
as §1, §2

[8] = test system: human skeletal muscle cells (HSKM cells); experiment: Glucose uptake assay, human skeletal muscle cells; assay type: cell-based; conditions: for glucose uptake: starved, treated 1 hour; for dose dependence of glucose uptake (printed: activation of insulin / AMPK activation): 100 μM to 0.005 μM, 1 hour
Description: FIGS. 1-4 show results for cells treated with differing doses of representative compounds of Structure (I) (i.e., compound I-11 in FIG. 1 and compound I-7 in FIG. 2) as well reference compounds (i.e., PF-06409577 in FIG. 3 and MK-8722 in FIG. 4). […] Cells were starved for 3 hours in high glucose DMEM without FBS, then treated with indicated compounds in DMEM without FBS/glucose for 1 hour, and glucose uptake was detected using an uptake glucose kit (Promega). The bars show (from left to right) concentrations of 100 μM, 33 μM, 11 μM, 3.7 μM, 1.23 μM, 0.41 μM, 0.14 μM, 0.045 μM, 0.015 μM, 0.005 μM, 0 μM, and insulin.
as §1, §2

[9] = test system: AMPK signal pathway in human cardiac myocytes (HCM); experiment: Western blot assay, human cardiomyocytes; assay type: cell-based

AMPK (A2/B1/G3), sequence (P54646 whole entry): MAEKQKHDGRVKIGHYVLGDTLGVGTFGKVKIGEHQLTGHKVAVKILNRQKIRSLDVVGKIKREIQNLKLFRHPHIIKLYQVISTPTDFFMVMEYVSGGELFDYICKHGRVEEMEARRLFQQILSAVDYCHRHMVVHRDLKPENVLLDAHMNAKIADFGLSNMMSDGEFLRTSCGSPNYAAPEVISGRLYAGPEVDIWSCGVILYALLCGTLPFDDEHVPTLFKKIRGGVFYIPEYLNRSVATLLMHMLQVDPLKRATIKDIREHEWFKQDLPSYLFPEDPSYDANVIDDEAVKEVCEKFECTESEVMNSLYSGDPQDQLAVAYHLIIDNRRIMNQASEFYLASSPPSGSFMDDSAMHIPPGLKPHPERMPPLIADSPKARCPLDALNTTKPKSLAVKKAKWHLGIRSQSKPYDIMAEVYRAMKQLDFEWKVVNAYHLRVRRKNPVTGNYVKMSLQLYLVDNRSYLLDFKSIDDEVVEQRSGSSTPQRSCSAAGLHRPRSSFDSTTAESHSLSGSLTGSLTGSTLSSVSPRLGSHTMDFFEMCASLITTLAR
AMPK (A2/B1/G3), sequence (Q9Y478 whole entry): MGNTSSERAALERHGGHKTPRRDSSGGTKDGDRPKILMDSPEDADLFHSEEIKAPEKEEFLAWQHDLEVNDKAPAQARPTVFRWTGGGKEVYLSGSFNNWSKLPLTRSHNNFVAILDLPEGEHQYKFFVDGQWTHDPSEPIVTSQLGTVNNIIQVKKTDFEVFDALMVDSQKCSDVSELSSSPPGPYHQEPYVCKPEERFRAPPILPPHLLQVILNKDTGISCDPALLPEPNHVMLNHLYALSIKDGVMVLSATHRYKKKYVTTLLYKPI
AMPK (A2/B1/G3), sequence (Q9UGI9 whole entry): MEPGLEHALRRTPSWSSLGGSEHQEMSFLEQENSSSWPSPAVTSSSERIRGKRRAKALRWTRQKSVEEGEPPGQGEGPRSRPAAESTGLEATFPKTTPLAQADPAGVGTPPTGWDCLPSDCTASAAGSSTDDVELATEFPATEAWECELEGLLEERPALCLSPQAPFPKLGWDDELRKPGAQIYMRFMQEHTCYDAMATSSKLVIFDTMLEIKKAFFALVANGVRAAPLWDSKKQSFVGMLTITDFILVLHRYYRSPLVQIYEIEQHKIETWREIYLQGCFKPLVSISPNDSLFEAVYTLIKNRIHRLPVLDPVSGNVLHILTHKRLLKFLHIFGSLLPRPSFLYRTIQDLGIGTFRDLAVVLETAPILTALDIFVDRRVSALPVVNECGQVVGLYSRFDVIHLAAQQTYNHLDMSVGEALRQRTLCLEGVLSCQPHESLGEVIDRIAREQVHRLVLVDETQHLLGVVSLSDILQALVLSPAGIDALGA
AMPK (A2/B1/G2), sequence (P54646 whole entry): as the sequence (P54646 whole entry) above
AMPK (A2/B1/G2), sequence (Q9Y478 whole entry): as the sequence (Q9Y478 whole entry) above
AMPK (A2/B1/G2), sequence (Q9UGJ0 whole entry): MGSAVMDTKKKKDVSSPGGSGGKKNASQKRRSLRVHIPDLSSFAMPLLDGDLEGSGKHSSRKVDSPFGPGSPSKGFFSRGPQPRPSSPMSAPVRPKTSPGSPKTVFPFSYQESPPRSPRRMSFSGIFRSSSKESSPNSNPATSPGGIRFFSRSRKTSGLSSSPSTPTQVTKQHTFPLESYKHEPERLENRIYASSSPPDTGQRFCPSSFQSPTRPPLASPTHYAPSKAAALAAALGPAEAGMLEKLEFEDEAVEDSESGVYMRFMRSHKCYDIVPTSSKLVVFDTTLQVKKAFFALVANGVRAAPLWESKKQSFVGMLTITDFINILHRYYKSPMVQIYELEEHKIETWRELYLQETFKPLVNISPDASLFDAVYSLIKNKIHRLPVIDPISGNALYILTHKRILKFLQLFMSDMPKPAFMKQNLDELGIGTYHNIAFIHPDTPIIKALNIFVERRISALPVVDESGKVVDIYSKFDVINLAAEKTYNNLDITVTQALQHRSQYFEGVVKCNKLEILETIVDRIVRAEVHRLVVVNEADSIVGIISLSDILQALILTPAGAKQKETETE
AMPK (A2/B1/G1), sequence (P54646 whole entry): as the sequence (P54646 whole entry) above
AMPK (A2/B1/G1), sequence (Q9Y478 whole entry): as the sequence (Q9Y478 whole entry) above
AMPK (A2/B1/G1), sequence (P54619 whole entry): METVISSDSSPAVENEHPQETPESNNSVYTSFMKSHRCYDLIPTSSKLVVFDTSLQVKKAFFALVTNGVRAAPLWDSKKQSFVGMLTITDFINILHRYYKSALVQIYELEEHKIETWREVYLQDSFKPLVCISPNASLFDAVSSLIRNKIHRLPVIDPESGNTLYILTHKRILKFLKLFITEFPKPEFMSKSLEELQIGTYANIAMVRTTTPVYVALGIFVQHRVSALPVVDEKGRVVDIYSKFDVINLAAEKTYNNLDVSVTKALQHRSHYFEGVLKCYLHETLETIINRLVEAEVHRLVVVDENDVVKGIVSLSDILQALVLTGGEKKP

Row | SMILES | AC50 [1] [nM] | AC50 [2] [nM] | AC50 [3] [nM] | glucose uptake [4] | glucose uptake [5] | p-AMPK, p-ACC, and p-Raptor expression [6] | glucose uptake [7] | glucose uptake [8] | p-ACC/p-AMPK and AMPKα2β2γ3 expression [9] | dose dependence of glucose uptake (printed: activation of insulin / AMPK activation) [8] | AMPK activation activity (glucose uptake assay) ([4]; diabetic donor) | AMPK activation activity (glucose uptake assay) ([4]; healthy donor) | dose dependence of glucose uptake (printed: activates insulin) ([7]; HWP cells, abdomen cells, 100 μM to 0.005 μM, 1 hour)
1 | COc1ccc(-c2cc3c(-c4noc(=O)[nH]4)c[nH]c3cc2F)cn1 [Compound I-16, 3-(6-fluoro-5-(6-methoxypyridin-3-yl)-1H-indol-3-yl)-1,2,4-oxadiazol-5(4H)-one] | 500 to 5000 | 500 to 5000 | 5000 to 7500 |  |  |  |  |  |  |  |  |  | 
2 | O=c1[nH]c(-c2c[nH]c3cc(F)c(-c4ccc(C5(O)COC5)cc4)cc23)no1 [Compound I-12, 3-(6-fluoro-5-(4-(3-hydroxyoxetan-3-yl)phenyl)-1H-indol-3-yl)-1,2,4-oxadiazol-5(4H)-one] | 10 to 500 | 10 to 500 |  |  |  |  |  |  |  |  |  |  | 
3 | O=c1[nH]c(-c2c[nH]c3cc(Cl)c(-c4ccc(C5(O)CCC5)cc4)cc23)no1 [Compound I-1, 3-(6-chloro-5-(4-(1-hydroxycyclobutyl)phenyl)-1H-indol-3-yl)-1,2,4-oxadiazol-5(4H)-one] | ≤ 10 | ≤ 10 | 10 to 500 | did not induce glucose uptake in dose-dependent manner | induced glucose uptake | could induce | induced glucose uptake | induced glucose uptake; also recorded: increased glucose uptake |  |  |  |  | 
4 | O[C@@H]1CO[C@H]2[C@@H]1OC[C@H]2Oc1nc2nc(-c3ccc(-c4ccccc4)cc3)c(Cl)cc2[nH]1 [MK-8722, reference compound] |  |  |  | could increase glucose uptake |  |  |  |  | may be able to increase | highly variable |  |  | 
5 | O=c1[nH]c(-c2c[nH]c3cc(F)c(-c4ccc(C5(O)CCC5)cc4)cc23)no1 [Compound I-7, 3-(6-fluoro-5-(4-(1-hydroxycyclobutyl)phenyl)-1H-indol-3-yl)-1,2,4-oxadiazol-5(4H)-one] |  |  |  | did not induce glucose uptake in dose-dependent manner | induced glucose uptake | could induce | induced glucose uptake | induced glucose uptake; also recorded: increased glucose uptake |  | dose dependence | did not show AMPK activation activity | did not show AMPK activation activity | dose dependent manner
6 | COc1ccc(-c2c(F)cc3[nH]cc(-c4noc(=O)[nH]4)c3c2F)c(OC)n1 [Compound I-17, 3-(5-(2,6-dimethoxypyridin-3-yl)-4,6-difluoro-1H-indol-3-yl)-1,2,4-oxadiazol-5(4H)-one] | 500 to 5000 | 500 to 5000 | 500 to 5000 |  |  |  |  |  |  |  |  |  | 
7 | COc1ncccc1-c1cc2c(-c3noc(=O)[nH]3)c[nH]c2cc1F [Compound I-15, 3-(6-fluoro-5-(2-methoxypyridin-3-yl)-1H-indol-3-yl)-1,2,4-oxadiazol-5(4H)-one] | ≤ 10 | 10 to 500 | 10 to 500 |  |  |  |  |  |  |  |  |  | 
8 | O=c1[nH]c(-c2c[nH]c3cc(F)c(-c4ccc(C5(O)COC5)cc4)c(F)c23)no1 [Compound I-13, 3-(4,6-difluoro-5-(4-(3-hydroxyoxetan-3-yl)phenyl)-1H-indol-3-yl)-1,2,4-oxadiazol-5(4H)-one] | ≤ 10 | ≤ 10 | 10 to 500 |  |  |  |  | increased glucose uptake |  |  |  |  | 
9 | O=c1[nH]c(-c2c[nH]c3ccc(-c4ccc(C5(O)CCC5)cc4)cc23)no1 [Compound I-10, 3-(5-(4-(1-hydroxycyclobutyl)phenyl)-1H-indol-3-yl)-1,2,4-oxadiazol-5(4H)-one] | 10 to 500 | 10 to 500 | 10 to 500 | did not induce glucose uptake in dose-dependent manner | induced glucose uptake | could induce | induced glucose uptake | induced glucose uptake; also recorded: increased glucose uptake |  |  |  |  | 
